In general, IC50 refers to the concentration that gives 50% inhibition.

Like-named read-outs stand apart in the source and are kept apart here. Positions of bridges follow the written chain, without caps; N, C: chain ends. Residues, ends and D or L forms follow the SMILES beside them.

Consider 6 compounds from article PMC9182383, “Rational Design of Plant Hairpin-like Peptide EcAMP1: Structural–Functional Correlations to Reveal Antibacterial and Antifungal Activity” (Molecules, 2022).

For assay [1], the system named is filamentous fungi and oomycetes. As to conditions: cited from earlier work.
In the next assay the test system is Alternaria alternata. To be noted: 48 h.
A further assay relates to P. aeruginosa. As to the kind of experiment: Antibacterial microdilution assay. The assay is classed as cell-based. As to conditions: CA-MHB, 37 °C 48 h; for Antibacterial activity against P. aeruginosa: concentrations up to 80 µM. For orientation: In broth dilution the organism is exposed to a series of concentrations in liquid medium.
The next assay concerns E. coli. As to the kind of experiment: Antibacterial microdilution assay. The assay is classed as cell-based, Escherichia coli. To be noted: CA-MHB, 37 °C 48 h; for Antibacterial activity against E. coli: concentrations up to 80 µM.
For the next assay, the system named is Aspergillus niger. As to conditions: 48 h.
The next assay relates to Bipolaris sorokiniana. As to conditions: 48 h.
The next assay relates to C. albicans. As to conditions: 48 h.
The test system of another assay is F. solani. As to conditions: 48 h.
A further assay relates to Fusarium oxysporum. To be noted: 48 h.
Where [2] appears, read: read-out: Antifungal activity IC50, F. graminearum, Table 1, native vs truncated forms, potato–dextrose broth, 10^4–10^5 conidia per mL, 25 °C 48 h, 50% inhibition of spore germination, light microscopy, three replicates.
Setting [3] is: Table S1, microdilution, YPDB, OD600, growth control +, negative control -.

On to `CSCC[C@@H]1NC(=O)[C@@H]2CSSC[C@H](NC(=O)[C@H](CCC(=O)O)NC(=O)[C@H](CCC(N)=O)NC(=O)[C@H](C(C)C)NC(=O)[C@H](CCCNC(=N)N)NC(=O)[C@H](Cc3c[nH]c4ccccc34)NC(=O)[C@@H]3CCCN3C(=O)[C@H](CCC(=O)O)NC(=O)[C@H](CC(=O)O)NC(=O)[C@H](CCC(=O)O)NC(=O)[C@H](Cc3c[nH]cn3)NC(=O)[C@H](CCCNC(=N)N)NC(=O)[C@H](CCCNC(=N)N)NC1=O)C(=O)N[C@@H](C(C)C)C(=O)N[C@@H](CO)C(=O)N[C@@H](CCC(N)=O)C(=O)N[C@H](C(=O)N[C@@H](CCCNC(=N)N)C(=O)N[C@@H](CCCNC(=N)N)C(=O)N[C@@H](CCCNC(=N)N)C(=O)N[C@@H](CCCNC(=N)N)C(=O)NCC(=O)NCC(=O)NCC(=O)N[C@@H](CC(=O)O)C(=O)O)CSSC[C@H](NC(=O)[C@H](CO)NC(=O)CNC(=O)[C@H](CCCNC(=N)N)NC(=O)CNC(=O)[C@H](CO)NC(=O)CN)C(=O)N[C@@H](CCCNC(=N)N)C(=O)N[C@@H](CO)C(=O)N[C@@H](CCC(N)=O)C(=O)N2` [EcAMP1-WT] (H-GSGRGSCRSQCMRRHEDEPWRVQECVSQCRRRRGGGD-OH; disulfide 7-29, 11-25; N-terminus and C-terminus assumed), for which, in assay [1], the “Number of microbes for which inhibition activity was registered” value is given as 11. Also, the IC50 in assay [1] (read-out: IC50 against filamentous fungi and oomycetes) was 4.5 to 18.2 µM; with Alternaria alternata, 18.4 ± 2.7 µM; in the assay with Aspergillus niger, more than 32 µM; in the assay on F. graminearum (setting [2]) it was 6.8 ± 1 µM; in the assay on S. aureus (48 h) it was 5 µM; in the assay on Bipolaris sorokiniana it was 25.7 ± 3.6 µM. This compound also yielded a half-inhibitory concentration (IC50) in the assay with C. albicans of 0.625 µM. In addition, the “Antibacterial activity against P. aeruginosa” value in the assay on P. aeruginosa is “inactive”. Also, in the assay with E. coli, the “Antibacterial activity against E. coli” value is “inactive”. Also, the “Growth of S. aureus at 5 µM peptide” value with S. aureus (Table S2, 5 µM, microdilution, CA-MHB, 37 °C 48 h, OD600, growth control +, negative control -) is recorded as “MIC50”. Also, the “Growth of S. aureus at 10 µM peptide” value in the assay with S. aureus (Table S2, 10 µM, microdilution, CA-MHB, 37 °C 48 h, OD600, growth control +, negative control -) is “MIC95”. Moreover, in the assay on S. aureus (Table S2, 20 µM, microdilution, CA-MHB, 37 °C 48 h, OD600, growth control +, negative control -), the “Growth of S. aureus at 20 µM peptide” value is “MIC99”. Further, in the assay on C. albicans (Table S1, 0.625 µM, microdilution, YPDB, OD600, growth control +, negative control -), the “Growth of C. albicans at 0.625 µM peptide” value is on record as “MIC50”. The “Growth of C. albicans at 1.25 µM peptide” value in the assay on C. albicans (setting [3]) is listed as “MIC99”. Besides, in the assay on C. albicans (microdilution, YPDB, range 0.625–80 µM, OD600), the “MIC99, almost complete suppression of C. albicans” value amounted to 1.25 µM.

For `CSCC[C@@H]1NC(=O)[C@@H]2CSSC[C@H](NC(=O)[C@H](CCC(=O)O)NC(=O)[C@H](CCC(N)=O)NC(=O)[C@H](C(C)C)NC(=O)[C@H](CCCNC(=N)N)NC(=O)[C@H](Cc3c[nH]c4ccccc34)NC(=O)[C@@H]3CCCN3C(=O)[C@H](CCC(=O)O)NC(=O)[C@H](CC(=O)O)NC(=O)[C@H](CCC(=O)O)NC(=O)[C@H](Cc3c[nH]cn3)NC(=O)[C@H](CCCNC(=N)N)NC(=O)[C@H](CCCNC(=N)N)NC1=O)C(=O)N[C@@H](C(C)C)C(=O)N[C@@H](CO)C(=O)N[C@@H](CCC(N)=O)C(=O)N[C@H](C(=O)O)CSSC[C@H](N)C(=O)N[C@@H](CCCNC(=N)N)C(=O)N[C@@H](CO)C(=O)N[C@@H](CCC(N)=O)C(=O)N2` [EcAMP1-X1] (H-CRSQCMRRHEDEPWRVQECVSQC-OH; disulfide 1-23, 5-19 (inferred); N-terminus assumed), the IC50 in the assay with Alternaria alternata is 21.1 ± 2.4 µM; with F. solani, 6.9 ± 0.7 µM; in the assay on Aspergillus niger it was more than 32 µM; with Fusarium oxysporum it was 15.4 ± 1.1 µM; with F. graminearum (setting [2]), 9 ± 1.4 µM; in the assay with Bipolaris sorokiniana, more than 32 µM. The “Antibacterial activity against P. aeruginosa” value in the assay with P. aeruginosa is “absolutely inactive”. In the assay on E. coli, the “Antibacterial activity against E. coli” value is “absolutely inactive”. Besides, the “Antibacterial activity against S. aureus” value in the assay with S. aureus (microdilution, CA-MHB, 37 °C 48 h, concentrations up to 80 µM) is “absolutely inactive”. For the same compound, in the assay on C. albicans (microdilution, YPDB, concentrations up to 80 µM), the “Activity against C. albicans” value is “absolutely inactive”.

Consider `CSCC[C@@H]1NC(=O)[C@@H](N)CSSC[C@@H](C(=O)O)NC(=O)[C@H](CCC(=O)O)NC(=O)[C@H](CCC(N)=O)NC(=O)[C@H](C(C)C)NC(=O)[C@H](CCCNC(=N)N)NC(=O)[C@H](Cc2c[nH]c3ccccc23)NC(=O)[C@@H]2CCCN2C(=O)[C@H](CCC(=O)O)NC(=O)[C@H](CC(=O)O)NC(=O)[C@H](CCC(=O)O)NC(=O)[C@H](Cc2c[nH]cn2)NC(=O)[C@H](CCCNC(=N)N)NC(=O)[C@H](CCCNC(=N)N)NC1=O` [EcAMP1-X2] (H-CMRRHEDEPWRVQEC-OH; disulfide 1-15), for which the IC50 was more than 32 µM with Alternaria alternata; 11 ± 1.9 µM with F. solani; more than 32 µM in the assay on Aspergillus niger; 23.2 ± 2.6 µM in the assay with Fusarium oxysporum; 18.1 ± 2.1 µM in the assay with F. graminearum (setting [2]); more than 32 µM in the assay with Bipolaris sorokiniana.

As to `CSCC[C@@H]1NC(=O)[C@@H]2CSSC[C@H](NC(=O)[C@H](CCC(=O)O)NC(=O)[C@H](CCC(N)=O)NC(=O)[C@H](C(C)C)NC(=O)[C@H](CCCNC(=N)N)NC(=O)[C@H](C)NC(=O)[C@@H]3CCCN3C(=O)[C@H](CCC(=O)O)NC(=O)[C@H](CC(=O)O)NC(=O)[C@H](CCC(=O)O)NC(=O)[C@H](Cc3c[nH]cn3)NC(=O)[C@H](CCCNC(=N)N)NC(=O)[C@H](CCCNC(=N)N)NC1=O)C(=O)N[C@@H](C(C)C)C(=O)N[C@@H](CO)C(=O)N[C@@H](CCC(N)=O)C(=O)N[C@H](C(=O)N[C@@H](CCCNC(=N)N)C(=O)N[C@@H](CCCNC(=N)N)C(=O)N[C@@H](CCCNC(=N)N)C(=O)N[C@@H](CCCNC(=N)N)C(=O)NCC(=O)NCC(=O)NCC(=O)N[C@@H](CC(=O)O)C(=O)O)CSSC[C@H](NC(=O)[C@H](CO)NC(=O)CNC(=O)[C@H](CCCNC(=N)N)NC(=O)CNC(=O)[C@H](CO)NC(=O)CN)C(=O)N[C@@H](CCCNC(=N)N)C(=O)N[C@@H](CO)C(=O)N[C@@H](CCC(N)=O)C(=O)N2` [EcAMP1-X3] (H-GSGRGSCRSQCMRRHEDEPARVQECVSQCRRRRGGGD-OH; disulfide 7-29, 11-25; N-terminus and C-terminus assumed), the figures for the IC50 with F. solani, in the assay with Fusarium oxysporum and with F. graminearum (48 h) were 8.6 ± 1.5 µM, 15 ± 2.1 µM and 9.9 ± 1.9 µM, respectively.

Consider `CSCC[C@@H]1NC(=O)[C@@H]2CSSC[C@H](NC(=O)[C@H](CCC(=O)O)NC(=O)[C@H](CCC(N)=O)NC(=O)[C@H](C(C)C)NC(=O)[C@H](CCCNC(=N)N)NC(=O)[C@H](Cc3c[nH]c4ccccc34)NC(=O)[C@@H]3CCCN3C(=O)[C@H](CCC(=O)O)NC(=O)[C@H](CC(=O)O)NC(=O)[C@H](CCC(=O)O)NC(=O)[C@H](Cc3c[nH]cn3)NC(=O)[C@H](CCCNC(=N)N)NC(=O)[C@H](CCCNC(=N)N)NC1=O)C(=O)N[C@@H](C(C)C)C(=O)N[C@@H](CO)C(=O)N[C@@H](CCC(N)=O)C(=O)N[C@H](C(=O)N[C@@H](CCCNC(=N)N)C(=O)N[C@@H](CCCNC(=N)N)C(=O)O)CSSC[C@H](NC(=O)[C@H](CO)NC(=O)CNC(=O)[C@H](CCCNC(=N)N)NC(=O)CNC(=O)[C@H](CO)NC(=O)CN)C(=O)N[C@@H](CCCNC(=N)N)C(=O)N[C@@H](CO)C(=O)N[C@@H](CCC(N)=O)C(=O)N2` [EcAMP1-X4] (H-GSGRGSCRSQCMRRHEDEPWRVQECVSQCRR-OH; disulfide 7-29, 11-25; N-terminus and C-terminus assumed), for which the IC50 in the assay with F. solani was determined as 7.8 ± 0.7 µM; in the assay with Fusarium oxysporum, 15.8 ± 1.6 µM; with F. graminearum (48 h) it was 8.5 ± 1.2 µM.

In the case of “LL37: linear α-helical antimicrobial peptide cathelicidin, positive control (LLGDFFRKSKEKIGKEFKRIVQRIKDFLRNLVPRTES; Antibacterial peptide LL-37; UniProt P49913 134-170, looked up) [reference compound]”, the “Growth of P. aeruginosa at 1.25 µM peptide” value in the assay on P. aeruginosa (Table S4, 1.25 µM, OD600, growth control +, negative control -) is “MIC99”. In addition, in the assay with E. coli (Table S3, 1.25 µM, OD600, growth control +, negative control -), the “Growth of E. coli at 1.25 µM peptide” value was “MIC99”. Moreover, the “Growth of S. aureus at 0.625 µM peptide” value with S. aureus (Table S2, 0.625 µM, microdilution, CA-MHB, 37 °C 48 h, OD600, growth control +, negative control -) is “MIC50”. The “Growth of S. aureus at 1.25 µM peptide” value with S. aureus (Table S2, 1.25 µM, microdilution, CA-MHB, 37 °C 48 h, OD600, growth control +, negative control -) was “MIC99”. The “Growth of C. albicans at 1.25 µM peptide” value in the assay on C. albicans (setting [3]) is reported as “MIC99”.
